Assay results reported in ChEMBL document CHEMBL5715945 (Cancer Biol Ther, 2010).
Calls of active or inactive are those of the source. The calls are words filed in the database; no cut-off is given here.

Legend:
[1] = molecular target: Fibroblast growth factor receptor 1 (Homo sapiens) (UniProt P11362); assay: Inhibition of FGFR1 (unknown origin) at 1 uM relative to control; values are per cent of control
[2] = molecular target: Dual specificity mitogen-activated protein kinase kinase 1 (Homo sapiens) (UniProt Q02750); assay: Inhibition of MEK1 (unknown origin) at 0.1 uM relative to control; values are per cent of control
[3] = species on record: Homo sapiens; assay: Inhibition of CDK2/cyclin A (unknown origin) at 0.1 uM relative to control; values are per cent of control
[4] = system: 4T1; assay: Induction of cell cycle arrest in mouse 4T1 adherent cells assessed as accumulation at G2/M phase at 1 uM measured after 72 hrs by PI staining based flow cytometry analysis (reference value: 5.6%); assay type: functional
[5] = molecular target: Proto-oncogene tyrosine-protein kinase receptor Ret (Homo sapiens) (UniProt P07949); assay: Inhibition of Ret (unknown origin) at 0.1 uM relative to control; values are per cent of control
[6] = molecular target: RAF proto-oncogene serine/threonine-protein kinase (Homo sapiens) (UniProt P04049); assay: Inhibition of c-RAF (unknown origin) at 0.1 uM relative to control; values are per cent of control
[7] = molecular target: Serine/threonine-protein kinase Chk1 (Homo sapiens) (UniProt O14757); assay: Inhibition of CHK1 (unknown origin) at 0.1 uM relative to control; values are per cent of control
Serine/threonine-protein kinase Chk1 (Homo sapiens), sequence (O14757 whole entry): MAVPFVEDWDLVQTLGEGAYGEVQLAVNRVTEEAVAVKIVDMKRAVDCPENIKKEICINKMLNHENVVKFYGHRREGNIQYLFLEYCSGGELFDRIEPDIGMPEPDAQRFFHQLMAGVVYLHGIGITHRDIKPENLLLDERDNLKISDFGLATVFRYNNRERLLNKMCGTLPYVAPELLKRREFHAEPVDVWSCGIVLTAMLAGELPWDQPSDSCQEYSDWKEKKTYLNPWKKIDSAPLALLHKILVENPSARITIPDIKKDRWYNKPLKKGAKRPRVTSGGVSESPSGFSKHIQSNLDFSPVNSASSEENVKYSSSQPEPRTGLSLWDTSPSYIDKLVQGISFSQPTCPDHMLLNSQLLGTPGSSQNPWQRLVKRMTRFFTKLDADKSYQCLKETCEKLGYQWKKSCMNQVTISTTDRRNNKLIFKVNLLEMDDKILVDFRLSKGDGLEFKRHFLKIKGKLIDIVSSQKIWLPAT

[8] = molecular target: Insulin receptor (Homo sapiens) (UniProt P06213); assay: Inhibition of IR (unknown origin) at 0.1 uM relative to control; values are per cent of control
[9] = system: 4T1; assay: Induction of cell cycle arrest in mouse 4T1 adherent cells assessed as accumulation at S phase at 1 uM measured after 72 hrs by PI staining based flow cytometry analysis (reference value: 15.3%); assay type: functional
[10] = molecular target: ALK tyrosine kinase receptor (Homo sapiens) (UniProt Q9UM73); assay: Inhibition of ALK (unknown origin) at 0.1 uM relative to control; values are per cent of control
ALK tyrosine kinase receptor (Homo sapiens), sequence (Q9UM73 19-1620 limits assumed): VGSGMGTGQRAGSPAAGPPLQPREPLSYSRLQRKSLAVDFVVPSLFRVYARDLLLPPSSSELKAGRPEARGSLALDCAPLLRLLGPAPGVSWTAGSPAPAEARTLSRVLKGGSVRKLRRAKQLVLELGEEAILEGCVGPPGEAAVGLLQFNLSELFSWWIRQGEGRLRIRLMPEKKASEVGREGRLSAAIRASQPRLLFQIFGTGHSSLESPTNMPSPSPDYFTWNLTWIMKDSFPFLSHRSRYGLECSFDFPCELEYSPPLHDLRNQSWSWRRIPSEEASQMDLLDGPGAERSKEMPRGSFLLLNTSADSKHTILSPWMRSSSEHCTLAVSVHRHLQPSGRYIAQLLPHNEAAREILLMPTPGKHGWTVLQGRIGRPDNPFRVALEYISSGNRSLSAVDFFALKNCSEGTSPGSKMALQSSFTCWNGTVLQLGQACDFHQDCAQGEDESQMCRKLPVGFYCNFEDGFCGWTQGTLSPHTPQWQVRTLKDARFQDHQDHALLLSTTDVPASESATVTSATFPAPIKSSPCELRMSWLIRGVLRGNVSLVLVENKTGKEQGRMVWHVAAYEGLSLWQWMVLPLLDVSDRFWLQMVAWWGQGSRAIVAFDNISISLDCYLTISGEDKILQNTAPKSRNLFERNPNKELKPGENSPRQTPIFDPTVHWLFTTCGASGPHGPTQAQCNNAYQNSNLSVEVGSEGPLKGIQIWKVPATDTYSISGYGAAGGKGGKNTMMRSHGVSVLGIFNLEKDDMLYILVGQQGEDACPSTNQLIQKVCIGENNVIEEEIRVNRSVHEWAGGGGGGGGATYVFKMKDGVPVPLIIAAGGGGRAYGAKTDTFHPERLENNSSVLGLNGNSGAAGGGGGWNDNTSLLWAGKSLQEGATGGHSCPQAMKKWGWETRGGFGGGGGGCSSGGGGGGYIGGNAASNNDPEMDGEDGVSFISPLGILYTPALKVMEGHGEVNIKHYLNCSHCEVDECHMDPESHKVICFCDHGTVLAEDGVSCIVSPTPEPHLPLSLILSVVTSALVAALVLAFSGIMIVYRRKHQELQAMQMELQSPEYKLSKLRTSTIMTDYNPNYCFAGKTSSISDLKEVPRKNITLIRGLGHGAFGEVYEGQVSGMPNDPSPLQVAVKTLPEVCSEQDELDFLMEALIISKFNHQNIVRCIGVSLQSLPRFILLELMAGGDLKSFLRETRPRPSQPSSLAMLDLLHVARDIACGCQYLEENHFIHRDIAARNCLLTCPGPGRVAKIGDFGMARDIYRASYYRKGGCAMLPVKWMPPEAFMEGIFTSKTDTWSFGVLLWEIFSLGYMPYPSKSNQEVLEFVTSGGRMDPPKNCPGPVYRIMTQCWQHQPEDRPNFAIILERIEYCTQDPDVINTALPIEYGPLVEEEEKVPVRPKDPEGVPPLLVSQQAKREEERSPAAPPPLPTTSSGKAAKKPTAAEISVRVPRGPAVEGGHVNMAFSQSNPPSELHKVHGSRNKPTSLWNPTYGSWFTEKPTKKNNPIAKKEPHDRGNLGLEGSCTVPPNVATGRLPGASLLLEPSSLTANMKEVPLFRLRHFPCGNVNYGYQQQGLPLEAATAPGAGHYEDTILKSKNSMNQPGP

[11] = molecular target: Aurora kinase A (Homo sapiens) (UniProt O14965); assay: Inhibition of Aurora-A (unknown origin) at 1 uM relative to control
[12] = molecular target: Ephrin type-A receptor 1 (Homo sapiens) (UniProt P21709); assay: Inhibition of EphA1 (unknown origin) at 1 uM relative to control; values are per cent of control
[13] = system: 4T1; assay: Antiproliferative activity against mouse 4T1 cells cultured as 3D spheroids assessed as maximal effect at 0.2 uM measured after 72 hrs by phase contrast microscopic analysis; assay type: functional, cell-based
[14] = molecular target: Focal adhesion kinase 1 (Mus musculus) (UniProt P34152); assay: Inhibition of FAK phosphorylation at Tyr397 residue in mouse 4T1 cells harbouring mCherry red fluorescent protein at 0.1 to 1 uM incubated for 60 mins followed by compound washout measured after 60 mins by immunoblotting analysis; assay type: cell-based; conditions: dose 0.1-1 µM
[15] = molecular target: High affinity nerve growth factor receptor (Homo sapiens) (UniProt P04629); assay: Inhibition of TrkA (unknown origin) at 1 uM relative to control; values are per cent of control
High affinity nerve growth factor receptor (Homo sapiens), sequence (P04629 33-796 limits assumed): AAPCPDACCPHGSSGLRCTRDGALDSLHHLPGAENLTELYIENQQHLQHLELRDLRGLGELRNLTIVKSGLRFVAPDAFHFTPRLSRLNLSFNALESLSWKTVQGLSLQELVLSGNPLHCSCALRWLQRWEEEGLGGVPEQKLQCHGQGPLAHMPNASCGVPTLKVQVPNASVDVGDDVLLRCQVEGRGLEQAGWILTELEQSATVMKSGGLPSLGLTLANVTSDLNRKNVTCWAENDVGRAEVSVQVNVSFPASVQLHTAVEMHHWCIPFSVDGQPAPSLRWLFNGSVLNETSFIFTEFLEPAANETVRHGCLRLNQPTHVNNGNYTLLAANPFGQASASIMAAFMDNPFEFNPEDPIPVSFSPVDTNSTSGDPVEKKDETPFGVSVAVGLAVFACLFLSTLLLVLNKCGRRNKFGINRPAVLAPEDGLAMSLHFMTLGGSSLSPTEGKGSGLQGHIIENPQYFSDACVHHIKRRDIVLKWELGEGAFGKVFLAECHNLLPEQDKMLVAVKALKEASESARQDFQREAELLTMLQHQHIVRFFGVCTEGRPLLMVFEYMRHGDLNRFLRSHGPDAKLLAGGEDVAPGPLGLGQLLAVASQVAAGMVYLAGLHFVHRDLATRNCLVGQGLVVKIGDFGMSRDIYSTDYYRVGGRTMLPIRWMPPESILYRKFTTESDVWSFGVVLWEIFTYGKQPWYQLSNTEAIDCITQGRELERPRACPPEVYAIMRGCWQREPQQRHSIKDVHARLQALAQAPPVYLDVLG

[16] = molecular target: Platelet-derived growth factor receptor beta (Homo sapiens) (UniProt P09619); assay: Inhibition of PDGFRb (unknown origin) at 0.1 uM relative to control; values are per cent of control
Platelet-derived growth factor receptor beta (Homo sapiens), sequence (P09619 whole entry): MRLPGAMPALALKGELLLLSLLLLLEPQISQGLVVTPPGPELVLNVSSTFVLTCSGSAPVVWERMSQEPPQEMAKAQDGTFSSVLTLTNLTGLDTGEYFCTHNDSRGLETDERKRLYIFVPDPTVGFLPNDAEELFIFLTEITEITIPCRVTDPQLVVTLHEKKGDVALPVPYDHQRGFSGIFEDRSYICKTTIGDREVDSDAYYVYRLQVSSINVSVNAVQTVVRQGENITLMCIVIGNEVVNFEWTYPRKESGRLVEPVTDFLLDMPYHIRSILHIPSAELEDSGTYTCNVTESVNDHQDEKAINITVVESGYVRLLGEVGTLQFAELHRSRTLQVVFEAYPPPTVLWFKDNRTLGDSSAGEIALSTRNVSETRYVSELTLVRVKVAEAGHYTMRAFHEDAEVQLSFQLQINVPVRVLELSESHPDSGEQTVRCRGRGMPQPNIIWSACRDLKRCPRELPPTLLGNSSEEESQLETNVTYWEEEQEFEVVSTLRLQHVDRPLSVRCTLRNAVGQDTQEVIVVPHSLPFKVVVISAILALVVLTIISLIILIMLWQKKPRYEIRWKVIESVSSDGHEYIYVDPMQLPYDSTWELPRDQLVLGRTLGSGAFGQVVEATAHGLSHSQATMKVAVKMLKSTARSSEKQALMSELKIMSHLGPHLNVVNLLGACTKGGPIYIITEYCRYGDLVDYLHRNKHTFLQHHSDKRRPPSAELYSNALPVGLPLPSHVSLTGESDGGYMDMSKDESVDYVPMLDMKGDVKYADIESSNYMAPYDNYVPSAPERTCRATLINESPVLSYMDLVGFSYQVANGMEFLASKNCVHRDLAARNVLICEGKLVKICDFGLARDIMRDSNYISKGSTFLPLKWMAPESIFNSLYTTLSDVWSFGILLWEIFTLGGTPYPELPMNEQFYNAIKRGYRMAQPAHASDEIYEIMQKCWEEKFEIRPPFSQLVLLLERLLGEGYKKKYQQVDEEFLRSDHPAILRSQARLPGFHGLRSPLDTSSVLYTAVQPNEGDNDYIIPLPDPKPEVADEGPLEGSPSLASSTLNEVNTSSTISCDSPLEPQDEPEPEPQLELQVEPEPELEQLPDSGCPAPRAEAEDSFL

[17] = molecular target: Mitogen-activated protein kinase 1 (Homo sapiens) (UniProt P28482); assay: Inhibition of MAPK1 (unknown origin) at 1 uM relative to control; values are per cent of control
[18] = molecular target: ALK tyrosine kinase receptor (Homo sapiens) (UniProt Q9UM73); assay: Inhibition of ALK (unknown origin) at 1 uM relative to control; values are per cent of control
[19] = system: 4T1; assay: Upregulation of FAK level in mouse 4T1 cells harbouring mCherry red fluorescent protein at 0.1 to 1 uM incubated for 1 hr by immunoblotting analysis; assay type: functional, cell-based; conditions: dose 0.1-1 µM
[20] = molecular target: Serine/threonine-protein kinase Chk1 (Homo sapiens) (UniProt O14757); assay: Inhibition of CHK1 (unknown origin) at 1 uM relative to control; values are per cent of control
[21] = system: 4T1; assay: Induction of apoptosis in mouse 4T1 suspended cells at 0.1 to 1 uM incubated for 48 hrs by PI staining based flow cytometry analysis; assay type: functional, cell-based; conditions: dose 0.1-1 µM
[22] = system: 4T1; assay: Induction of apoptosis in mouse 4T1 cells assessed as increase in cell apoptosis at 0.1 to 1 uM measured after 2 days by visual analysis; assay type: functional; conditions: dose 0.1-1 µM, time 2 day
[23] = molecular target: Tyrosine-protein kinase JAK2 (Homo sapiens) (UniProt O60674); assay: Inhibition of JAK2 (unknown origin) at 1 uM relative to control; values are per cent of control
[24] = system: ID8; assay: Antitumor activity against mouse ID8 cells implanted in C57BL6 mouse assessed as reduction in number of ascites-associated cells at 0.5 mg/ml administered as solution in 5% sucrose measured after 30 days; assay type: functional, cell-based; conditions: time 30.0 day
[25] = system: 4T1; assay: Effect on p130Cas phosphorylation at Tyr249 residue in mouse 4T1 cultured as 3D spheroids at 0.1 uM incubated for 24 hrs by immunoblotting analysis; assay type: functional, cell-based
[26] = molecular target: Tyrosine-protein kinase ABL1 (Homo sapiens) (UniProt P00519); assay: Inhibition of Abl (unknown origin) at 0.1 uM relative to control; values are per cent of control
[27] = system: 4T1; assay: Antitumor activity against mouse 4T1 cells harbouring mCherry red fluorescent protein implanted in BALB/c mouse assessed as increase in cleaved caspase-3 in tumor at 30 to 100 mg/kg, sc bid measured after 5 days by Hoechst staining based microscopic analysis; assay type: functional, organism-based; conditions: dose 30-100 mg/kg, time 5.0 day
[28] = species on record: Homo sapiens; assay: Inhibition of p70S6K (unknown origin) at 0.1 uM relative to control; values are per cent of control
[29] = system: ID8; assay: Antitumor activity against mouse ID8 suspended cells assessed as reduction in cell viability measured after 72 hrs by trypan blue staining based analysis; assay type: functional; conditions: dose 0.1 µM
[30] = molecular target: Fibroblast growth factor receptor 1 (Homo sapiens) (UniProt P11362); assay: Inhibition of FGFR1 (unknown origin) at 0.1 uM relative to control; values are per cent of control
[31] = system: 4T1; assay: Antiproliferative activity against mouse 4T1 cells cultured as 3D spheroids assessed as fold reduction in average spheroid size at 0.1 uM measured after 72 hrs by phase contrast microscopic analysis; assay type: functional

Fibroblast growth factor receptor 1 (Homo sapiens), sequence (P11362 22-822 limits assumed): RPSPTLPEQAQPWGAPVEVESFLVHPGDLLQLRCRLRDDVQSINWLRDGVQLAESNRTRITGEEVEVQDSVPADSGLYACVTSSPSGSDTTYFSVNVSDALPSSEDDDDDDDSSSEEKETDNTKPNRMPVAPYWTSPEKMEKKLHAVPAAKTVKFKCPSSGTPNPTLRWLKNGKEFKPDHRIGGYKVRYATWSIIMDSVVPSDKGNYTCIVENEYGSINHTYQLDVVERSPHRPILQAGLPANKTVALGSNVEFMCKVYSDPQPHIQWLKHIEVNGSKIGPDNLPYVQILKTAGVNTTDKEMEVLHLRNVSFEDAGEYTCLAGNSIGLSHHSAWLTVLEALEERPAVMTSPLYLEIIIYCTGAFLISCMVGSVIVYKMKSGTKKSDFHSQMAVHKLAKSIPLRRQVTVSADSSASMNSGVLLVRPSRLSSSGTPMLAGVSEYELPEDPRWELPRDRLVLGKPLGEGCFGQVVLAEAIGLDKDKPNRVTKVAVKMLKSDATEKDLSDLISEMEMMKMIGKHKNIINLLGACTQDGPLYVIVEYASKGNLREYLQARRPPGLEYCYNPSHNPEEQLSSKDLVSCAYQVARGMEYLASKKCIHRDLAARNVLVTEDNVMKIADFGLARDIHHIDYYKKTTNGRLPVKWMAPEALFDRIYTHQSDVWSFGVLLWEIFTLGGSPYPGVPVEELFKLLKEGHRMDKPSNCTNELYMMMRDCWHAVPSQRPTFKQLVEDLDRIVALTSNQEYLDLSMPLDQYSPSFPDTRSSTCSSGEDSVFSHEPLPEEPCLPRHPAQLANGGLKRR

residual activity [1]: 97%
residual activity [2]: 79%
residual activity [3]: 91%
residual activity [5]: 86%
residual activity [6]: 142%
residual activity [7]: 109%
residual activity [8]: 84%
residual activity [10]: 145%
inhibition [11]: 8%
residual activity [12]: 108%
inhibition [14]: inactive
residual activity [15]: 27%
residual activity [16]: 98%
residual activity [17]: 58%
residual activity [18]: 127%
residual activity [20]: 105%
residual activity [23]: 96%
residual activity [26]: 104%
residual activity [28]: 95%
residual activity [30]: 98%
Structure (SMILES): CNC(=O)c1ccccc1Nc1cc(Nc2ccc(N3CCOCC3)cc2OC)ncc1C(F)(F)F [VS-4718]
Activity [4]: 5.6%
Activity [9]: 23.8%
Activity [13]: Active
Activity [19]: Active
Activity [21]: inactive
Activity [22]: >50%
Activity [24]: Active
Activity [25]: Active
Activity [27]: Active
Activity [29]: Dose-Dependent Effect
fold change (FC) [31]: ~3
